From article PMC7961786, “Magic Peptide: Unique Properties of the LRR11 Peptide in the Activation of Leukotriene Synthesis in Human Neutrophils” (International Journal of Molecular Sciences, 2021)
“Also recorded” adds a separate entry of the source.

Tests used:
[1] = test system: human neutrophils (PMNLs), 5-LOX product synthesis; test: 5-LOX metabolite synthesis in human neutrophils stimulated with opsonized S. typhimurium (HPLC); format: cell-based
[2] = test system: TLR9 signaling in RAW 264.7; settings: ref [9]; cited from earlier work
Description: (§1) In neutrophils, bacteria and pathogen-associated molecular patterns (PAMPs) that are expressed by microorganisms are recognized by Toll-like receptors (TLRs). In particular, the mechanisms of immunoregulatory activity of CpG-containing bacterial or synthetic DNA fragments include their interaction with TLR9 receptors, known as DNA sensors. Therefore, synthetic peptides that mimics DNA recognizing regions of the receptor can be effective modulators of neutrophil cell responses. The crystal structure of TLR9 was analyzed and it was predicted that leucine-rich repeats (L ...

[3] = test system: mouse-derived monocyte/macrophage cell line RAW 264.7; settings: ref [9]; cited from earlier work
Description: as §1

[4] = test system: CpG-ODNs; settings: ref [8]; cited from earlier work
Description: as §1

Substance | effect on 5-LOX activity / leukotriene synthesis ([1]; ODN alone, 1 µM, 20 min, then opsonized S. typhimurium 15 min, Figure 1, five independent experiments in duplicate) | Σ 5-LOX metabolites ([1]; Table S1, 2×10^7 PMNLs, 15 min at 37 °C without or with 5 µM Chloroquine, then ODN, after 20 min 0.5×10^9 opsonized S. typhimurium for 15 min, mean ± SEM, three independent experiments) [ng/107 PMNLs] | effect of LRR11 on 5-LOX product synthesis in combination with ODN or LPS ([1]; 1 µM LRR11 added simultaneously with 1 µM ODN or LPS, then opsonized S. typhimurium, Figure 1) | effect of LRR11 on FPS-ZM1 action on leukotriene synthesis ([1]; 1 µM LRR11 with ODN after 0.15 µM FPS-ZM1, Figure 3) | LTB4 accumulation, dependence on way of LRR11 addition ([1]; (1) LRR11 15 min before ODN, (2) simultaneously but independently, (3) 1-h pre-mixed) | effect on TLR9 signaling [2] | effect on oligonucleotide internalization [3] | binding to CpG-ODNs [4]
5′-tcgtcgttttcggcgcgcgccg-3′ (DNA TCGTCGTTTTCGGCGCGCGCCG; chemistry not fully specified) [C-CpG] | increased leukotriene synthesis | 42.1 ± 4.2 | – | – | – | – | – | –
QLRKLNLSFNYQKRVSFAHLSLAPSFGSLV [LRR11, 30 amino acid peptide from leucine-rich repeat of TLR9] | – | – | does not significantly change the effects of G-rich ODN and lipopolysaccharides (LPS), but obviously enhances the effects of CpG-ODNs; also recorded: stimulated the formation of the 5-LOX products; also recorded: synergistically amplifying each other’s effects | its action is nullified in the presence of LRR11 peptide; also recorded: LRR11 abolished the effects of FPS-ZM1 and restored the level of leukotriene synthesis | only pathways (2) and (3) provide a significant effect on LTB4 accumulation | attenuating of TLR9 signaling | decrease in the oligonucleotide internalization | can bind to the CpG-ODNs
